Data on 17 compounds can be found in US9732087B2, “Diamino-pyridine, pyrimidine, and pyridazine modulators of the histamine H4 receptor” (JANSSEN PHARMACEUTICA NV, priority 2008, dated 2017).

In test [1] the test system is diabetes induced obese (DIO) mouse model. The test is described as follows: Insulin resistance in diabetes induced obese (DIO) mouse model. The class given is in vivo. As for the experimental part: Insulin Resistance in Diabetes Induced Obese Mouse Model.
The effect of administration of an H4R antagonist, 5-fluoro-4-methyl-2-{5-methyl-2-[4-(1-methyl-piperidin-4-yl)-butoxy]-pyridin-4-yl}-1H-benzoimidazole (U.S. Pat. No. 7,432,378, Example 165), was tested in the treatment of insulin resistance in the diabetes induced obese (DIO) mouse model. […] Our data support the claim that H4R antagonists have beneficial properties towards the treatment of type 2 diabetes and related metabolic diseases.

The target of test [2] is T1, human H4 receptor (Homo sapiens (Human), UniProt Q9H3N8). Briefly: cell-based. The class given is cell-based. How it is done:
SK-N-MC cell lines were created that express a reporter gene construct and the human H4 receptor full-coding region (NCBI accession No. AF312230). The reporter gene was β-galactosidase under the control of cyclic AMP-responsive elements. Cells were plated in 96-well plates the night before the assay. Histamine was used as the agonist for all assay. For the H4 receptor, the inhibition of forskolin-stimulated cAMP production was measured. For determination of antagonist activity, compounds were added 10 min prior to the addition of agonist, which was added directly to the cell medium. Forskolin (5 μM final concentration) was added 10 min after the addition of histamine. Cells were returned to the incubator for 6 h at 37° C. The medium was then aspirated, and the cells were washed with […] of phosphate-buffered saline (PBS). Cells were lysed with 25 μL of 0.1X assay buffer (10 mM sodium phosphate, pH 8, 0.2 mM MgSO4, and 0.01 mM MnCl2) and incubated at rt for 10 min. Cells were then incubated for 10 min with 100 μL of 1X assay buffer containing 0.5% (v/v) Triton X-100 and 40 mM β-mercaptoethanol. Color was developed using 25 μL of 1 mg/mL substrate solution (chlorophenol red β-D-galactopyranoside; Roche Applied Science, Indianapolis, Ind.). Color was quantitated on a microplate reader by measuring the absorbance at 570 nm. The data from each concentration-response curve were fitted to a sigmoidal curve to obtain the maximum response, Hill coefficient, and EC50 using Prism (GraphPad Software, San Diego, Calif.). Dose ratios were calculated from individual concentration-response curves of agonists at three to five antagonist concentrations. Apparent pA2 values were calculated using a Schild plot (ND=not determined).

In test [3] the target is T1, human H4 receptor. Briefly: Binding assay on recombinant human histamine H4 receptor ([3H]histamine competition, SK-N-MC cell membranes). Conditions: [3H]histamine 10 nM, average of results. Summed up: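 Scintillation counting of filter-bound [3H]histamine after rapid harvesting on 0.5% PEI-treated GF/C filters with ice-cold Tris/EDTA washes. Receptor source: 30,000 g membrane pellets of SK-N-MC cells stably or transiently expressing human H4. Values shown as '>' are the top concentration tested.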

The test system of the next test is eosinophils. Conditions: cited from earlier work.
Test [4] deals with mast cells. Conditions: cited from earlier work.
The next test deals with H4 receptor (H4R) (Homo sapiens (Human), UniProt Q9H3N8). Conditions: in vitro; cited from earlier work.
Sequence of H4 receptor (H4R) (Q9H3N8 whole entry, species assumed): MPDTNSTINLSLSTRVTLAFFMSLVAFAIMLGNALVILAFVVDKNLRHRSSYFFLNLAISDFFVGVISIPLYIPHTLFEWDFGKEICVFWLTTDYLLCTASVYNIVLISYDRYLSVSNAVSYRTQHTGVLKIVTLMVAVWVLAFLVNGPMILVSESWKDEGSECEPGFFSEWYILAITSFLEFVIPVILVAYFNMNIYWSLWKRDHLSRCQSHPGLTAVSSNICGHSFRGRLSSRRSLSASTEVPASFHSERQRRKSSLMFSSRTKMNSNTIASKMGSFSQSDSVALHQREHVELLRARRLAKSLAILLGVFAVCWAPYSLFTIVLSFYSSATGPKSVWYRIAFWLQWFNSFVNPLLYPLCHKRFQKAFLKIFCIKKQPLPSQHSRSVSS
For test [5], the system named is mouse models of asthma, arthritis and dermatitis. Conditions: in vivo; cited from earlier work.
Test [6] concerns mast cells. Conditions: cited from earlier work. This is another data set of the same source.
Test [7] has as its system lipopolysaccharide (LPS)-induced tumor necrosis factor alpha (TNF-α) production. Conditions: in vivo; cited from earlier work.
Setting [8] is: apparent pA2 from Schild plot, antagonism of histamine inhibition of forskolin-stimulated cAMP, read-out: pA2 (converted).
Where [9] appears, read: membranes harvested with cell harvester, read-out: Cell Harvester Ki.
The mark [10] stands for this setting: apparent pA2 from Schild plot, antagonism of histamine inhibition of forskolin-stimulated cAMP.
The mark [11] stands for this setting: membranes harvested with 96 well Brandel system, read-out: Brandel Ki.

Molecules are shown by their SMILES. Counter-ions that a name gives are not always drawn. Like-named read-outs stand apart in the source and are kept apart here.

As usually defined, the Ki is the dissociation constant of the complex between target and ligand, obtained from inhibition or displacement. For orientation: pA2 means a measure of antagonist potency on a negative log scale.

T1 sequence (Q9H3N8 whole entry): as the sequence (Q9H3N8 whole entry, species assumed) above

For the compound `Cc1cnc(OCCCCC2CCN(C)CC2)cc1-c1nc2c(C)c(F)ccc2[nH]1` [5-Fluoro-4-methyl-2-{5-methyl-2-[4-(1-methyl-piperidin-4-yl)-butoxy]-pyridin-4-yl}-1H-benzoimidazole], in [1], the “MCP-1 and TNF-α expression” value is “reduced”; the “fat content in liver” value is “significantly reduced”. In addition, in [1] (20 mg/kg PO), the “fed and fasted glucose levels” value is “significantly reduced”; the “insulin sensitivity as determined by an insulin tolerance test” value is on record as “improved”.

Take `CCCNc1cc(N2CC[C@@H](NC)C2)ccn1` [Example 3, 4-[(3R)-3-(Methylamino)pyrrolidin-1-yl]-N-propylpyridin-2-amine dihydrochloride]: the Kb on human H4 receptor [2] (setting [8]) is 2 nM. The Ki at human H4 receptor [3] (setting [9]) amounted to 7.26 nM.

With `CN[C@@H]1CCN(c2ccnc(NCC3CC3)c2)C1` [Example 4, N-(Cyclopropylmethyl)-4-[(3R)-3-(methylamino)pyrrolidin-1-yl]pyridin-2-amine ditrifluoroacetate], the Kb at human H4 receptor [2] (setting [8]) is 1.38 nM. Also, on human H4 receptor [3] (setting [9]), the Ki is 4.9 nM.

Take `CN[C@@H]1CCN(c2ccnc(NC(C)C)c2)C1` [Example 12, 4-[(3R)-3-(Methylamino)pyrrolidin-1-yl]-N-(1-methylethyl)pyridin-2-amine]: the pA2 at human H4 receptor [2] (setting [10]) was determined as 8.5. For the same compound, at human H4 receptor [3] (setting [9]), the Ki turned out to be 19.2 nM.

With `CC(C)CNc1cc(N2CC[C@@H](N)C2)ccn1` [Example 20, 4-[(3R)-3-Aminopyrrolidin-1-yl]-N-(2-methylpropyl)pyridin-2-amine dihydrochloride], on human H4 receptor [2] (setting [8]), the Kb is 20 nM. The Ki on human H4 receptor [3] (setting [11]) is 3.5 nM.

On to `CN[C@@H]1CCN(c2cnnc(NCC(C)C)c2)C1` [Example 95, 5-[(3R)-3-(Methylamino)pyrrolidin-1-yl]-N-(2-methylpropyl)pyridazin-3-amine], for which the pA2 at human H4 receptor [2] (setting [10]) turned out to be 7.8. Moreover, the Ki at human H4 receptor [3] (setting [11]) and on human H4 receptor [3] (setting [9]) was 15 nM throughout.

As to `CN[C@H]1CCN(c2ccnc(NC3CC4CCC3C4)n2)C1` (stereo partly drawn) [Example 162, N-Bicyclo[2.2.1]hept-2-yl-4-[(3S)-3-(methylamino)pyrrolidin-1-yl]pyrimidin-2-amine], the pA2 at human H4 receptor [2] (setting [10]) is given as 8.1. The inhibition constant (Ki) at human H4 receptor [3] (setting [9]) came out at 7.14 nM.

As to `CN[C@@H]1CCN(c2ccnc(NC[C@H]3CC[C@H]4C[C@@H]3C4(C)C)n2)C1` [Example 193, N-{[(1S,2S,5S)-6,6-Dimethylbicyclo[3.1.1]hept-2-yl]methyl}-4-[(3R)-3-(methylamino)pyrrolidin-1-yl]pyrimidin-2-amine], on human H4 receptor [2] (setting [8]), the Kb was 12.6 nM. Moreover, the Ki on human H4 receptor [3] (setting [9]) came to 16 nM.

Regarding `CN[C@@H]1CCN(c2ccnc(NC[C@H]3CC[C@H]4C[C@@H]3C4(C)C)c2)C1` [Example 217, N-{[(1S,2S,5S)-6,6-Dimethylbicyclo[3.1.1]hept-2-yl]methyl}-4-[(3R)-3-(methylamino)pyrrolidin-1-yl]pyridin-2-amine], the Kb at human H4 receptor [2] (setting [8]) is 31.6 nM. For the same compound, the Ki at human H4 receptor [3] (setting [9]) stood at 24.3 nM.

As for `CN[C@@H]1CCN(c2ccnc(NCC34CC5CC(CC(C5)C3)C4)c2)C1` [Example 220, Adamantan-1-ylmethyl-[4-(3R)-(3-methylamino-pyrrolidin-1-yl)-pyridin-2-yl]-amine], the Kb at human H4 receptor [2] (setting [8]) was 25.1 nM. For the same compound, at human H4 receptor [3] (setting [9]), the inhibition constant Ki worked out at 6.48 nM.

For the compound `CN[C@H]1CCN(c2ccnc(NC3CC4CCC3C4)c2)C1` (stereo partly drawn) [Example 231, N-Bicyclo[2.2.1]hept-2-yl-4-[(3S)-3-(methylamino)pyrrolidin-1-yl]pyridin-2-amine], the pA2 on human H4 receptor [2] (setting [10]) is 9. Besides, the Ki on human H4 receptor [3] (setting [9]) was found to be 8.41 nM.

On human H4 receptor [2], `CC(C)CNc1cc(N2C[C@H]3CCN[C@H]3C2)ccn1` [Example 257, 4-[(3aR,6aR)-Hexahydropyrrolo[3,4-b]pyrrol-5(1H)-yl]-N-(2-methylpropyl)pyridin-2-amine] had a Kb of 50.1 nM. Also, on human H4 receptor [3] (setting [9]), the Ki was 64.5 nM.

Regarding `c1nnc(NC2CC3CCC2C3)cc1N1CCCNCC1` (centres unmarked) [Example 308, N-Bicyclo[2.2.1]hept-2-yl-5-(1,4-diazepan-1-yl)pyridazin-3-amine], the Kb on human H4 receptor [2] (setting [8]) is 79.4 nM. Besides, the Ki at human H4 receptor [3] (setting [9]) stood at 18.4 nM.

For the compound `CNC1CN(c2cnnc(NC3CC4CCC3C4)c2)C1` (centres unmarked) [Example 331, N-Bicyclo[2.2.1]hept-2-yl-5-[3-(methylamino)azetidin-1-yl]pyridazin-3-amine], at human H4 receptor [2] (setting [8]), the Kb was 39.8 nM. Further, the inhibitory constant (Ki) at human H4 receptor [3] (setting [9]) was 96.7 nM.

`CN[C@H]1CCN(c2cnnc(NC3CCCC3)c2)C1` [Example 380, N-Cyclopentyl-5-[(3S)-3-(methylamino)pyrrolidin-1-yl]pyridazin-3-amine]: the Kb on human H4 receptor [2] (setting [8]) was 63.1 nM. Besides, the Ki at human H4 receptor [3] (setting [9]) was found to be 54.3 nM.

Turning to `CN[C@@H]1CCN(c2cnnc(NCC(C)(C)C)c2)C1` [Example 392, N-(2,2-Dimethylpropyl)-5-[(3R)-3-(methylamino)pyrrolidin-1-yl]pyridazin-3-amine], the Kb at human H4 receptor [2] (setting [8]) was 7.94 nM. Besides, the inhibition constant Ki on human H4 receptor [3] (setting [9]) is 18.3 nM.

`Cc1cc(C)c2nc(-c3cnc(NCCCC4CCN(C)CC4)nc3C)[nH]c2c1` [[5-(4,6-dimethyl-1H-benzoimidazol-2-yl)-4-methyl-pyrimidin-2-yl]-[3-(1-methyl-piperidin-4-yl)-propyl]-amine]: the “histamine-induced shape change of eosinophils” value in the test with eosinophils is reported as “inhibited”. Moreover, the “chemotaxis of mast cells” value in the test with mast cells [4] is reported as “inhibited”. For the same compound, the “selectivity over other histamine receptors” value on H4 receptor (H4R) was “greater than 25 fold”. Moreover, the “inflammation in mouse models of asthma, arthritis and dermatitis” value in test [5] is “reduced inflammation”. Also, the “IL-6 production in mast cells” value with mast cells [6] is listed as “inhibited”. Besides, the “LPS-induced TNF-α production and other cytokines” value in test [7] is “inhibited”.
